Measurements reported in ChEMBL document CHEMBL1141154, “Indolin-2-ones with high in vivo efficacy in a model for multiple sclerosis” (J Med Chem, 2005).

Tests used:
Mus musculus [1] = assay: In vivo percent inhibition of multiple sclerosis (MS) by the compound upon intraperitoneal administration at a dose of 50 mg/kg on EAE model (mice immunized for EAE induction and assessed clinically for 21 days); assay type: functional; conditions: ip, 504 h
PBMC = assay: In vitro inhibitory concentration on the production of pro-inflammatory cytokine IL-2 in PBMC (Peripheral blood mononuclear cells) determined by IL-2 PBMC assay; assay type: functional, cell-based; conditions: Homo sapiens
[2] = target: Vascular endothelial growth factor receptor 2 (Homo sapiens, UniProt P35968); assay: In vitro inhibition of KDR
Mus musculus [3] = assay: In vivo percent inhibition of multiple sclerosis (MS) by the compound upon intraperitoneal administration at a dose of 50 mg/kg on EAE model (mice immunized for EAE induction and assessed clinically for 21 days); non significant effect; assay type: functional; conditions: ip, 504 h
Mus musculus [4] = assay: In vivo percent inhibition of multiple sclerosis (MS) by the compound upon oral administration at a dose of 50 mg/kg on EAE model (mice immunized for EAE induction and assessed clinically for 21 days); assay type: functional; conditions: 504 h

Sequence of Vascular endothelial growth factor receptor 2 (P35968 whole entry): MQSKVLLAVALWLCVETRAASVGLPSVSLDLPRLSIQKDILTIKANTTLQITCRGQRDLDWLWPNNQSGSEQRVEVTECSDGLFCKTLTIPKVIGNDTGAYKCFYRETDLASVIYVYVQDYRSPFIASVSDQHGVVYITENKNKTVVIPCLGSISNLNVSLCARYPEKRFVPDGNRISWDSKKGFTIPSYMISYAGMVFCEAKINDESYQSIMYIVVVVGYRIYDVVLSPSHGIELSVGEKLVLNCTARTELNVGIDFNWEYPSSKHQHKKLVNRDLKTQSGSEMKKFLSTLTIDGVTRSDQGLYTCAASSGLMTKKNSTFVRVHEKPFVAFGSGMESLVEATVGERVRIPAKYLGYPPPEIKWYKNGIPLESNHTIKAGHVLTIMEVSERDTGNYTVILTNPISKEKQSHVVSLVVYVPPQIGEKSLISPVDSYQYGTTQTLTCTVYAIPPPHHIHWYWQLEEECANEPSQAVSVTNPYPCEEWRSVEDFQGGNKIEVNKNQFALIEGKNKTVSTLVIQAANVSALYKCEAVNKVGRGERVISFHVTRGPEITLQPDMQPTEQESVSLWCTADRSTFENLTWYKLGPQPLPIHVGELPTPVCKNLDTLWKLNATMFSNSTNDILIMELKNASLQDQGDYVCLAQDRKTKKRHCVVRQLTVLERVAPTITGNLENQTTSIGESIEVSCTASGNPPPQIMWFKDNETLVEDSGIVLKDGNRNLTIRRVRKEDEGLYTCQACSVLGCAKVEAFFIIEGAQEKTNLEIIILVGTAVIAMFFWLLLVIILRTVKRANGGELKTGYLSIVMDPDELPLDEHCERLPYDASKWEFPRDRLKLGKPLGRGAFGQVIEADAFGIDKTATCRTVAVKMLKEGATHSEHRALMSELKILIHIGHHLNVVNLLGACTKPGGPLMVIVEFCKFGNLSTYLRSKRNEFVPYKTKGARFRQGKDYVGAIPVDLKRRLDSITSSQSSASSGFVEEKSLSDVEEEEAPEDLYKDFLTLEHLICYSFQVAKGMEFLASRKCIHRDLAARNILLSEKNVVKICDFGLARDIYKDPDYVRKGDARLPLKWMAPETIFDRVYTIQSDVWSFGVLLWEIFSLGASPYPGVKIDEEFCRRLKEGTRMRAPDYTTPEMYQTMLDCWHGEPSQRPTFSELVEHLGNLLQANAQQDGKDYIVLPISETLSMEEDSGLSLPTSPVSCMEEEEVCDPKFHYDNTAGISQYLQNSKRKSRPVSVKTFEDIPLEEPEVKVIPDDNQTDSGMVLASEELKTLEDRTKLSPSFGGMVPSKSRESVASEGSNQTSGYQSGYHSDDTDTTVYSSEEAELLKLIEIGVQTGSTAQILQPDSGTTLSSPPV

Row | Structure (SMILES) | IC50 [2] [nM] | inhibition in vivo at 50 mg/kg (Mus musculus [1]) [%] | IC50 (PBMC) [nM] | inhibition in vivo at 50 mg/kg (Mus musculus [3]) [%] | inhibition in vivo at 50 mg/kg (Mus musculus [4]) [%]
1 | Cc1cc(C(=O)O)[nH]c1/C=C1\C(=O)Nc2ccccc21 | > 10000 |  | > 1000 | -23 | 
2 | O=C1Nc2ccccc2/C1=C/c1c[nH]c2ccccc12 |  | 84 | 8 |  | 32
3 | COc1ccc(OC)c(/C=C2/C(=O)Nc3ccccc32)c1 |  | -90 | 21 |  | -49
4 | Cc1cc(CO)[nH]c1/C=C1\C(=O)Nc2ccccc21 | 320 | -57 | 50 |  | 
5 | Cc1cc(C)c(/C=C2\C(=O)N(CN3CCN(C)CC3)c3ccccc32)[nH]1 |  |  |  |  | -56
6 | O=C1Nc2ccccc2/C1=C/c1ccc[nH]1 |  |  |  | -9 | 
7 | CC(=O)ON1C(=O)/C(=C\c2[nH]c(C)cc2C)c2ccccc21 | 400 | -48 | 11 |  | 
8 | Cc1cc(C)c(/C=C2\C(=O)Nc3ccccc32)[nH]1 [SEMAXANIB] |  | -98 |  |  | 
9 | Cc1cc(C(=O)NCCO)[nH]c1/C=C1\C(=O)Nc2ccccc21 | > 10000 | -41 | 30 |  | 
10 | Clc1ccc(Nc2nnc(Cc3ccncc3)c3ccccc23)cc1 [VATALANIB] |  |  | > 1000 |  | 

More lines, main results first:

Row | IC50 [2] [nM] | Structure (SMILES) | inhibition in vivo at 50 mg/kg (Mus musculus [1]) [%] | IC50 (PBMC) [nM] | inhibition in vivo at 50 mg/kg (Mus musculus [3]) [%] | inhibition in vivo at 50 mg/kg (Mus musculus [4]) [%]
11 | 500 | Cc1cc(C)c(/C=C2\C(=O)N(O)c3ccccc32)[nH]1 | -67 | 18 |  | 
12 | 320 | Cc1[nH]c(/C=C2\C(=O)Nc3ccccc32)c(C)c1Br | -78 | 3 |  | 
13 | 8000 | CCOC(=O)c1cc(C)c(/C=C2\C(=O)Nc3ccccc32)[nH]1 | -44 | 14 |  | 
14 | 1000 | Cc1[nH]c(/C=C2\C(=O)Nc3ccccc32)c(C)c1Cl | -96 | 4 |  | 
15 | 100 | Cc1cc(C)c(/C=C2\C(=O)Nc3ccc(O)cc32)[nH]1 |  | 1000 | -12 | 
